From ChEMBL document CHEMBL1151433, “National and regional assessment of antimicrobial resistance among community-acquired respiratory tract pathogens identified in a 2005-2006 U.S. Faropenem surveillance study” (2007)
Converted amounts (≈) assume the structure as drawn.

Experiments:
Streptococcus pneumoniae [1] = assay: Antibacterial activity against Streptococcus pneumoniae ATCC 49619 isolated from respiratory tract infected patients with 6 to 14 years of age after 20 to 24 hrs by broth microdilution method; type: functional
Streptococcus pneumoniae [2] = assay: Antibacterial activity against Streptococcus pneumoniae ATCC 49619 isolated from respiratory tract infected patients more than 65 years of age after 20 to 24 hrs by broth microdilution method; type: functional
Streptococcus pneumoniae [3] = assay: Antibacterial activity against penicillin-susceptible Streptococcus pneumoniae ATCC 49619 isolated from respiratory tract infected patients after 20 to 24 hrs by broth microdilution method; type: functional
Streptococcus pneumoniae [4] = assay: Antibacterial activity against Streptococcus pneumoniae ATCC 49619 isolated from respiratory tract infected patients after 20 to 24 hrs by broth microdilution method; type: functional
Streptococcus pneumoniae [5] = assay: Antibacterial activity against Streptococcus pneumoniae ATCC 49619 isolated from respiratory tract infected inpatients after 20 to 24 hrs by broth microdilution method; type: functional
Streptococcus pneumoniae [6] = assay: Antibacterial activity against Streptococcus pneumoniae ATCC 49619 isolated from respiratory tract infected patients with 15 to 64 years of age after 20 to 24 hrs by broth microdilution method; type: functional
Moraxella catarrhalis = assay: Antibacterial activity against Moraxella catarrhalis isolated from respiratory tract infected patients after 20 to 24 hrs by broth microdilution method; type: functional
Streptococcus pneumoniae [7] = assay: Antibacterial activity against Streptococcus pneumoniae ATCC 49619 isolated from respiratory tract infected female patients after 20 to 24 hrs by broth microdilution method; type: functional
Streptococcus pneumoniae [8] = assay: Antibacterial activity against penicillin-resistant Streptococcus pneumoniae ATCC 49619 isolated from respiratory tract infected patients after 20 to 24 hrs by broth microdilution method; type: functional
Streptococcus pneumoniae [9] = assay: Antibacterial activity against Streptococcus pneumoniae ATCC 49619 isolated from respiratory tract infected male patients after 20 to 24 hrs by broth microdilution method; type: functional
Streptococcus pneumoniae [10] = assay: Antibacterial activity against Streptococcus pneumoniae ATCC 49619 isolated from respiratory tract infected outpatients after 20 to 24 hrs by broth microdilution method; type: functional
Streptococcus pneumoniae [11] = assay: Antibacterial activity against Streptococcus pneumoniae ATCC 49619 isolated from respiratory tract infected patients with 3 to 5 years of age after 20 to 24 hrs by broth microdilution method; type: functional
Streptococcus pneumoniae [12] = assay: Antibacterial activity against Streptococcus pneumoniae ATCC 49619 isolated from respiratory tract infected patients within 2 years of age after 20 to 24 hrs by broth microdilution method; type: functional
Streptococcus pneumoniae [13] = assay: Antibacterial activity against penicillin-intermediate Streptococcus pneumoniae ATCC 49619 isolated from respiratory tract infected patients after 20 to 24 hrs by broth microdilution method; type: functional
Streptococcus pneumoniae [14] = assay: Antibacterial activity against penicillin-intermediate Streptococcus pneumoniae ATCC 49619 isolated from respiratory tract infected patients assessed as resistant isolates after 20 to 24 hrs by broth microdilution method; type: functional
Streptococcus pneumoniae [15] = assay: Antibacterial activity against Streptococcus pneumoniae ATCC 49619 isolated from respiratory tract infected patients more than 65 years of age assessed as resistant isolates after 20 to 24 hrs by broth microdilution method; type: functional
Haemophilus influenzae [16] = assay: Antibacterial activity against Haemophilus influenzae […] isolated from respiratory tract infected patients after 20 to 24 hrs by broth microdilution method; type: functional; details: ATCC 49247
Streptococcus pneumoniae [17] = assay: Antibacterial activity against Streptococcus pneumoniae ATCC 49619 isolated from respiratory tract infected inpatients assessed as resistant isolates after 20 to 24 hrs by broth microdilution method; type: functional
Streptococcus pneumoniae [18] = assay: Antibacterial activity against Streptococcus pneumoniae ATCC 49619 isolated from respiratory tract infected patients assessed as susceptible isolates after 20 to 24 hrs by broth microdilution method; type: functional
Haemophilus influenzae [19] = assay: Antibacterial activity against Haemophilus influenzae […] isolated from respiratory tract infected patients assessed as susceptible isolates after 20 to 24 hrs by broth microdilution method; type: functional, ATCC 49247
Streptococcus pneumoniae [20] = assay: Antibacterial activity against penicillin-susceptible Streptococcus pneumoniae ATCC 49619 isolated from respiratory tract infected patients assessed as resistant isolates after 20 to 24 hrs by broth microdilution method; type: functional
Streptococcus pneumoniae [21] = assay: Antibacterial activity against penicillin-susceptible Streptococcus pneumoniae ATCC 49619 isolated from respiratory tract infected patients assessed as susceptible isolates after 20 to 24 hrs by broth microdilution method; type: functional
Haemophilus influenzae [22] = assay: Antibacterial activity against beta lactamase-positive Haemophilus influenzae […] isolated from respiratory tract infected patients after 20 to 24 hrs by broth microdilution method; type: functional; details: ATCC 49247
Streptococcus pneumoniae [23] = assay: Antibacterial activity against Streptococcus pneumoniae ATCC 49619 isolated from respiratory tract infected female patients assessed as resistant isolates after 20 to 24 hrs by broth microdilution method; type: functional
Streptococcus pneumoniae [24] = assay: Antibacterial activity against Streptococcus pneumoniae ATCC 49619 isolated from respiratory tract infected patients within 2 years of age assessed as resistant isolates after 20 to 24 hrs by broth microdilution method; type: functional
Streptococcus pneumoniae [25] = assay: Antibacterial activity against Streptococcus pneumoniae ATCC 49619 isolated from respiratory tract infected patients with 6 to 14 years of age assessed as resistant isolates after 20 to 24 hrs by broth microdilution method; type: functional
Streptococcus pneumoniae [26] = assay: Antibacterial activity against Streptococcus pneumoniae ATCC 49619 isolated from respiratory tract infected patients with 15 to 64 years of age assessed as resistant isolates after 20 to 24 hrs by broth microdilution method; type: functional
Streptococcus pneumoniae [27] = assay: Antibacterial activity against Streptococcus pneumoniae ATCC 49619 isolated from respiratory tract infected outpatients assessed as resistant isolates after 20 to 24 hrs by broth microdilution method; type: functional
Streptococcus pneumoniae [28] = assay: Antibacterial activity against Streptococcus pneumoniae ATCC 49619 isolated from respiratory tract infected patients assessed as resistant isolates after 20 to 24 hrs by broth microdilution method; type: functional
Streptococcus pneumoniae [29] = assay: Antibacterial activity against Streptococcus pneumoniae ATCC 49619 isolated from respiratory tract infected patients with 3 to 5 years of age assessed as resistant isolates after 20 to 24 hrs by broth microdilution method; type: functional
Streptococcus pneumoniae [30] = assay: Antibacterial activity against Streptococcus pneumoniae ATCC 49619 isolated from respiratory tract infected male patients assessed as resistant isolates after 20 to 24 hrs by broth microdilution method; type: functional
Streptococcus pneumoniae [31] = assay: Antibacterial activity against penicillin-resistant Streptococcus pneumoniae ATCC 49619 isolated from respiratory tract infected patients assessed as resistant isolates after 20 to 24 hrs by broth microdilution method; type: functional
Streptococcus pneumoniae [32] = assay: Antibacterial activity against penicillin-resistant Streptococcus pneumoniae ATCC 49619 isolated from respiratory tract infected patients assessed as susceptible isolates after 20 to 24 hrs by broth microdilution method; type: functional
Haemophilus influenzae [33] = assay: Antibacterial activity against beta lactamase-positive Haemophilus influenzae […] isolated from respiratory tract infected patients assessed as susceptible isolates after 20 to 24 hrs by broth microdilution method; type: functional, ATCC 49247
Haemophilus influenzae [34] = assay: Antibacterial activity against beta lactamase-negative Haemophilus influenzae […] isolated from respiratory tract infected patients assessed as susceptible isolates after 20 to 24 hrs by broth microdilution method; type: functional
Streptococcus pneumoniae [35] = assay: Antibacterial activity against penicillin-intermediate Streptococcus pneumoniae ATCC 49619 isolated from respiratory tract infected patients assessed as susceptible isolates after 20 to 24 hrs by broth microdilution method; type: functional
Haemophilus influenzae [36] = assay: Antibacterial activity against beta lactamase-negative Haemophilus influenzae […] isolated from respiratory tract infected patients after 20 to 24 hrs by broth microdilution method; type: functional; details: ATCC 49247

`C[C@@H](O)[C@H]1C(=O)N2C(C(=O)O)=C([C@H]3CCCO3)S[C@H]12` [FAROPENEM] showed an MIC90 (Streptococcus pneumoniae [1]) of 0.5 µg/mL (≈ 1.75 µM), an MIC90 (Streptococcus pneumoniae [2]) of 0.5 µg/mL (≈ 1.75 µM) and an MIC50 (Streptococcus pneumoniae [3]) of 0.008 µg/mL (≈ 0.028 µM). For the same compound, the MIC90 (Streptococcus pneumoniae [3]) was 0.015 µg/mL (≈ 0.0526 µM), the MIC50 (Streptococcus pneumoniae [4]) was 0.015 µg/mL (≈ 0.0526 µM) and the MIC90 (Streptococcus pneumoniae [4]) was 0.5 µg/mL (≈ 1.75 µM). It also gave an MIC90 (Streptococcus pneumoniae [5]) of 0.5 µg/mL (≈ 1.75 µM), an MIC90 (Streptococcus pneumoniae [6]) of 0.5 µg/mL (≈ 1.75 µM) and an MIC50 (Moraxella catarrhalis) of 0.25 µg/mL (≈ 0.876 µM). For the same compound, the MIC90 (Moraxella catarrhalis) was 0.5 µg/mL (≈ 1.75 µM), the MIC90 (Streptococcus pneumoniae [7]) was 0.5 µg/mL (≈ 1.75 µM) and the MIC50 (Streptococcus pneumoniae [8]) was 1 µg/mL (≈ 3.5 µM). For the same compound, the MIC90 (Streptococcus pneumoniae [8]) was 2 µg/mL (≈ 7.01 µM), the MIC90 (Streptococcus pneumoniae [9]) was 0.5 µg/mL (≈ 1.75 µM) and the MIC90 (Streptococcus pneumoniae [10]) was 0.5 µg/mL (≈ 1.75 µM). It also gave an MIC90 (Streptococcus pneumoniae [11]) of 1 µg/mL (≈ 3.5 µM), an MIC90 (Streptococcus pneumoniae [12]) of 1 µg/mL (≈ 3.5 µM) and an MIC50 (Streptococcus pneumoniae [13]) of 0.06 µg/mL (≈ 0.21 µM). The MIC90 (Streptococcus pneumoniae [13]) was 0.25 µg/mL (≈ 0.876 µM).

With `C[C@H]1COc2c(N3CCN(C)CC3)c(F)cc3c(=O)c(C(=O)O)cn1c23.C[C@H]1COc2c(N3CCN(C)CC3)c(F)cc3c(=O)c(C(=O)O)cn1c23.O` [LEVOFLOXACIN] the Activity (Streptococcus pneumoniae [14]) was 0.9%, the MIC90 (Streptococcus pneumoniae [1]) was 1 µg/mL and the MIC90 (Streptococcus pneumoniae [2]) was 1 µg/mL. It also gave an Activity (Streptococcus pneumoniae [15]) of 1.4%, an MIC50 (Haemophilus influenzae [16]) of no more than 0.06 µg/mL and an MIC90 (Haemophilus influenzae [16]) of no more than 0.06 µg/mL. The Activity (Streptococcus pneumoniae [17]) was 0.1%, the Activity (Streptococcus pneumoniae [18]) was 99.2% and the Activity (Haemophilus influenzae [19]) was 99.9%. It also gave an Activity (Streptococcus pneumoniae [20]) of 0.2%, an Activity (Streptococcus pneumoniae [21]) of 99.7% and an MIC50 (Streptococcus pneumoniae [3]) of 1 µg/mL. It also gave an MIC90 (Streptococcus pneumoniae [3]) of 1 µg/mL, an MIC50 (Haemophilus influenzae [22]) of no more than 0.06 µg/mL and an MIC90 (Haemophilus influenzae [22]) of no more than 0.06 µg/mL. The MIC50 (Streptococcus pneumoniae [4]) was 1 µg/mL, the MIC90 (Streptococcus pneumoniae [4]) was 1 µg/mL and the MIC90 (Streptococcus pneumoniae [5]) was 1 µg/mL. For the same compound, the Activity (Streptococcus pneumoniae [23]) was 0.3%, the Activity (Streptococcus pneumoniae [24]) was 0% and the MIC90 (Streptococcus pneumoniae [6]) was 1 µg/mL. The Activity (Streptococcus pneumoniae [25]) was 0%, the Activity (Streptococcus pneumoniae [26]) was 0.4% and the MIC50 (Moraxella catarrhalis) was no more than 0.06 µg/mL. The MIC90 (Moraxella catarrhalis) was no more than 0.06 µg/mL, the Activity (Streptococcus pneumoniae [27]) was 0.9% and the Activity (Streptococcus pneumoniae [28]) was 0.6%. The MIC90 (Streptococcus pneumoniae [7]) was 1 µg/mL, the Activity (Streptococcus pneumoniae [29]) was 0% and the MIC50 (Streptococcus pneumoniae [8]) was 1 µg/mL. For the same compound, the MIC90 (Streptococcus pneumoniae [8]) was 1 µg/mL, the Activity (Streptococcus pneumoniae [30]) was 0.8% and the MIC90 (Streptococcus pneumoniae [9]) was 1 µg/mL. For the same compound, the MIC90 (Streptococcus pneumoniae [10]) was 1 µg/mL, the MIC90 (Streptococcus pneumoniae [11]) was 1 µg/mL and the Activity (Streptococcus pneumoniae [31]) was 1.6%. The Activity (Streptococcus pneumoniae [32]) was 98%, the Activity (Haemophilus influenzae [33]) was 100% and the Activity (Haemophilus influenzae [34]) was 99.7%. For the same compound, the MIC90 (Streptococcus pneumoniae [12]) was 1 µg/mL, the Activity (Streptococcus pneumoniae [35]) was 98.8% and the MIC50 (Streptococcus pneumoniae [13]) was 1 µg/mL. It also gave an MIC90 (Streptococcus pneumoniae [13]) of 1 µg/mL, an MIC50 (Haemophilus influenzae [36]) of no more than 0.06 µg/mL and an MIC90 (Haemophilus influenzae [36]) of no more than 0.06 µg/mL.

For `C[C@@H](O)[C@H]1C(=O)N2C(C(=O)O)=C(S[C@@H]3CN[C@H](C(=O)N(C)C)C3)[C@H](C)[C@H]12` [MEROPENEM], the Activity (Streptococcus pneumoniae [14]) was 0%, the MIC50 (Haemophilus influenzae [16]) was 0.03 µg/mL (≈ 0.0782 µM) and the MIC90 (Haemophilus influenzae [16]) was 0.12 µg/mL (≈ 0.313 µM). For the same compound, the Activity (Streptococcus pneumoniae [18]) was 83.2%, the Activity (Haemophilus influenzae [19]) was 99.7% and the Activity (Streptococcus pneumoniae [20]) was 0%. For the same compound, the Activity (Streptococcus pneumoniae [21]) was 100%, the MIC50 (Streptococcus pneumoniae [3]) was 0.015 µg/mL (≈ 0.0391 µM) and the MIC90 (Streptococcus pneumoniae [3]) was 0.015 µg/mL (≈ 0.0391 µM). For the same compound, the MIC50 (Haemophilus influenzae [22]) was 0.03 µg/mL (≈ 0.0782 µM), the MIC90 (Haemophilus influenzae [22]) was 0.06 µg/mL (≈ 0.156 µM) and the MIC50 (Streptococcus pneumoniae [4]) was 0.015 µg/mL (≈ 0.0391 µM). For the same compound, the MIC90 (Streptococcus pneumoniae [4]) was 0.5 µg/mL (≈ 1.3 µM), the MIC50 (Moraxella catarrhalis) was no more than 0.004 µg/mL and the MIC90 (Moraxella catarrhalis) was 0.008 µg/mL (≈ 0.0209 µM). It also gave an Activity (Streptococcus pneumoniae [28]) of 9.5%, an MIC50 (Streptococcus pneumoniae [8]) of 1 µg/mL (≈ 2.61 µM) and an MIC90 (Streptococcus pneumoniae [8]) of 1 µg/mL (≈ 2.61 µM). It also gave an Activity (Streptococcus pneumoniae [31]) of 59.5%, an Activity (Streptococcus pneumoniae [32]) of 4.5% and an Activity (Haemophilus influenzae [33]) of 100%. The Activity (Haemophilus influenzae [34]) was 99.6%, the Activity (Streptococcus pneumoniae [35]) was 93.2% and the MIC50 (Streptococcus pneumoniae [13]) was 0.06 µg/mL (≈ 0.156 µM). For the same compound, the MIC90 (Streptococcus pneumoniae [13]) was 0.25 µg/mL (≈ 0.652 µM), the MIC50 (Haemophilus influenzae [36]) was 0.06 µg/mL (≈ 0.156 µM) and the MIC90 (Haemophilus influenzae [36]) was 0.12 µg/mL (≈ 0.313 µM).
